In US20250303004A1, “RADIOPHARMACEUTICAL COMPOSITIONS FOR LOW TOXICITY ACTINIUM IN TARGETED RADIONUCLIDE THERAPY” (Curium US LLC, priority 2021, published 2025):
Where two headings read alike, the source gives them in different places.

Tests used:
patients with mCRPC = settings: cited from earlier work; for Biochemical response PSA50 (PSA decline of more than 50%): 40 patients (38 evaluated)
[1] = system: salivary glands, kidneys, red marrow; assay: Dosimetry estimate for ^225Ac-PSMA-617 extrapolated from ^177Lu-PSMA-617 scans; type: in vivo, human; settings: FIG. 15
Method: The clinical dosimetry basis and dose finding study was performed by using the isotopes ^225Ac and ^177Lu by Kratochwil et al. A dosimetry estimate was calculated on the basis of time-activity curves derived from serially obtained ^177Lu-PSMA-617 scans extrapolated to the physical half-life of ^225Ac, assuming instant decay of unstable daughter nuclides. Salvage therapies empirically conducted with 50 (n=4), 100 (n=4), 150 (n=2), and 200 kBq/kg (n=4) of 225Ac-PSMA-617 were evaluated retrospectively regarding toxicity and treatment response. Eight of 14 patients received further cycles in either 2- or 4-mo intervals with identical or de-escalated activities.
In FIG. 15, the absorbed radiation dose estimates for ^225Ac-PSMA-617 are shown together with I-131-“PSMA” and ^177Lu-PSMA-617 doses. We see that mean dose for salivary glands is approximately 70% higher with ^225Ac-PSMA-617 than with ^177Lu-PSMA-617, and red marrow dose 85% higher, respectively.

[2] = Kratochwil 2018, 40 patients, 100 kBq/kg per cycle

O=C(O)CC[C@H](NC(=O)N[C@@H](CCCCNC(=O)[C@H](Cc1ccc2ccccc2c1)NC(=O)[C@H]1CC[C@H](CNC(=O)CN2CCN(CC(=O)O)CCN(CC(=O)O)CCN(CC(=O)O)CC2)CC1)C(=O)O)C(=O)O [^225Ac-PSMA-617, metal not drawn]
median duration of tumor control (patients with mCRPC; 40 patients, 100 kBq/kg): 9 months
median overall survival (patients with mCRPC; 40 patients, 100 kBq/kg): more than 12 months
progression free survival (median) (patients with mCRPC; 40 patients, 100 kBq/kg): 7.0 months
Biochemical response PSA50 (PSA decline of more than 50%) (patients with mCRPC; Kratochwil 2018, 100 kBq/kg per cycle): 63%
Biochemical response PSA50 (PSA decline of more than 50%) (patients with mCRPC; Kratochwil 2018, 100 kBq/kg per cycle, listed as PSMA-617): 63%
Major toxicity (patients with mCRPC; [2]): xerostomia
OS (patients with mCRPC; [2]): na/>12 mo
patients demonstrating any PSA response (patients with mCRPC; of 38 patients surviving at least 8 weeks): 87%
mean dose for salivary glands higher than with ^177Lu-PSMA-617 [1]: approximately 70%
red marrow dose higher than with ^177Lu-PSMA-617 [1]: 85%
